In US20130225609A1, “COMBINATIONS OF MEDICAMENTS, CONTAINING PDE4-INHIBITORS AND EP4-RECEPTOR-ANTAGONISTS” (BOEHRINGER INGELHEIM INTERNATIONAL GMBH, priority 2010, published 2013):

Assays:
[1] = Experiment 4: EP2-preferential antagonist AH6809 and roflumilast-mediated side effects in rats; format: in vivo, male Wistar rats; conditions: four days
Procedure: Six male Wistar rats were given a daily dosage of 10 mg/kg AH-6809 (preferential EP2 antagonist) at 1300 hours. Six male Wistar rats were given a daily dosage of 10 mg/kg Roflumilast (PDE4 inhibitor) at 1300 hours.

[2] = Experiment 2: Lumiracoxib (COX-2 selective) / SC-560 (COX-1 selective) and roflumilast-mediated side effects in rats; format: in vivo, male Wistar rats; conditions: four days
Description: Six male Wistar rats were given a daily dosage of 0.5%
For pharmacokinetic analysis (determining plasma levels of the substances) one rat from each group was used on day 4; these rats were no longer available for the investigation of other parameters.

[3] = Experiment 3: EP4 antagonist MF498 and roflumilast-mediated side effects in rats; format: in vivo, male Wistar rats; conditions: four days
Procedure: Six male Wistar rats were given a daily dosage of 0.5% Natrosol (Placebo) at 1300 hours.
Six male Wistar rats were given a daily dosage of 20 mg/kg MF-498 (EP4 antagonist) in each case at 1300 hours.
Six male Wistar rats were given a daily dosage of 10 mg/kg Roflumilast (PDE4 inhibitor) at 1300 hours.

[4] = Experiment 1: diclofenac and roflumilast-mediated side effects in rats
Procedure: Six male Wistar rats in each group were treated for four days with the following substances (all substances are given p.o.=orally):
Group 1 (“Control Group”):
Six male Wistar rats were given a daily dose of 0.5% Natrosol (placebo) at the times 0800, 1300 and 1700 hours.
Group 2 (“Diclofenac Group”):
Six male Wistar rats were given a daily dose of 1 mg/kg of diclofenac (NSAID) at the times 0800 and 1700 hours and 0.5% Natrosol (placebo) at 1300 hours.
Group 3 (“Roflumilast Group”):
Six male Wistar rats were given a daily dose of 0.5% Natrosol (placebo) at 0800 and 1700 hours and 10 mg/kg roflumilast (PDE4 inhibitor) at 1300 hours.
Group 4 (“Roflumilast+Diclofenac Group”):
Six male Wistar rats were given a daily dose of 1 mg/kg diclofenac (NSAID) at the times 0800 and 1700 hours and 10 mg/kg roflumilast (PDE4 inhibitor) at 1300 hours.
For pharmacokinetic analysis (determining the plasma levels of the substances) on day 4 one rat from each group was used; these rats were no longer available for other parameters under investigation.
During the experiment the body weights of the animals were determined and the differences in the body weights of the rats from the different groups towards the end of the experiment were shown as a percentage change from the time of the first administration (=day 1, 0800 hours (=time t0)). The average±standard deviation of the body weights at time t0 was 355±17 g.
At the end of the experiment (day 5, 95 hours after t0 (=the time of the first administration on day 1, 0800)) the proportion of neutrophils (in % of white blood cells, FIG. 2) were determined from the blood of 4 or 5 of the rats from the individual groups. In addition, the weights of the animals' spleens were measured and the mesenteries were dissected for histopathological investigation for vasculitis (multifocal perivascular mononuclear/polymorphonuclear infiltration).

[5] = 10 mg/kg p.o. + 10 mg/kg roflumilast p.o. at 1300 hours
[6] = 2 mg/kg p.o. at 0800 and 1700 hours + 10 mg/kg roflumilast p.o. at 1300 hours
[7] = 20 mg/kg p.o. + 10 mg/kg roflumilast p.o. at 1300 hours
[8] = Roflumilast group: 10 mg/kg roflumilast p.o. daily
[9] = 1 mg/kg p.o. at 0800 and 1700 hours + 10 mg/kg roflumilast p.o. at 1300 hours, four days

## CC(C)Oc1ccc2c(=O)c3cc(C(=O)O)ccc3oc2c1 [AH6809, 6-isopropoxy-9-oxoxanthene-2-carboxylic acid]
[1]; [5]
  effect of co-administration on roflumilast-mediated loss of body weight (FIG. 13): no indications that the EP2 preferential receptor antagonist AH-809 had any influence
  effect of co-administration on roflumilast-mediated loss of spleen weight (FIG. 14): no indications that the EP2 preferential receptor antagonist AH-809 had any influence
  effect of co-administration on roflumilast-mediated mesenteric vasculitis (FIG. 16): no indications that the EP2 preferential receptor antagonist AH-809 had any influence
  effect of co-administration on roflumilast-mediated neutrophilia (FIG. 15): no indications that the EP2 preferential receptor antagonist AH-809 had any influence
[1]; 10 mg/kg p.o. + 10 mg/kg roflumilast p.o.
  effect of EP2 blockage on the parameters measured (roflumilast-mediated side effects, overall): shows no effect on the parameters measured
[1]; 10 mg/kg p.o. daily, without roflumilast
  parameters measured after administration on its own (body weight, spleen weight, neutrophils, vasculitis): very similar to the control group

## Cc1ccc(Nc2c(F)cccc2Cl)c(CC(=O)O)c1 [Lumiracoxib]
[2]; [6]
  effect of co-administration on roflumilast-mediated loss of body weight (FIG. 5): substantially reduced or prevented
  effect of co-administration on roflumilast-mediated loss of spleen weight (FIG. 6): substantially reduced or prevented
  effect of co-administration on roflumilast-mediated mesenteric vasculitis (FIG. 8): substantially reduced or prevented
  effect of co-administration on roflumilast-mediated neutrophilia (FIG. 7): substantially reduced or prevented
[2]; 2 mg/kg p.o. at 0800 and 1700 hours, without roflumilast
  parameters measured after administration on its own (body weight, spleen weight, neutrophils, vasculitis): very similar to the control groups

## CCOc1c2c(c(OCC)c3ncccc13)CN(c1ccc(CS(=O)(=O)NC(=O)Cc3ccccc3OC)cc1C)C2=O [MF-498, N-{[4-(5,9-diethoxy-6-oxo-6,8-dihydro-7H-pyrrolo[3,4-g]quinolin-7-yl)-3-methylbenzyl]sulphonyl}-2-(2-methoxyphenyl)acetamide]
[3]; [7]
  effect of co-administration on roflumilast-mediated loss of body weight (FIG. 9): substantially reduced
  effect of co-administration on roflumilast-mediated loss of spleen weight (FIG. 10): substantially reduced
  effect of co-administration on roflumilast-mediated mesenteric vasculitis (FIG. 12): substantially reduced
  effect of co-administration on roflumilast-mediated neutrophilia (FIG. 11): substantially reduced
[3]; 20 mg/kg p.o. + 10 mg/kg roflumilast p.o., two-way analysis of variance
  differences in the weight of the spleen between the Roflumilast group and the Roflumilast+MF-498 group (statistics): do not achieve statistical significance
[3]; 20 mg/kg p.o. daily, without roflumilast
  parameters measured after administration on its own (body weight, spleen weight, neutrophils, vasculitis): very similar to the control group

## O=C(Nc1c(Cl)cncc1Cl)c1ccc(OC(F)F)c(OCC2CC2)c1 [Roflumilast]
[4]; Roflumilast group: 10 mg/kg p.o. daily, six rats per group
  death of animals: one rat from the roflumilast group which died between day 4 and day 5
[3]; [8]
  loss of body weight (FIG. 9): observed
  loss of spleen weight (FIG. 10): observed
  mesenteric vasculitis (monocyte/polymorphonuclear perivascular infiltration into the mesentery, FIG. 12): observed
  neutrophilia (FIG. 11): observed
[1]; [8]
  loss of body weight (FIG. 13): observed
  loss of spleen weight (FIG. 14): observed
  mesenteric vasculitis (monocyte/polymorphonuclear perivascular infiltration in the mesentery, FIG. 16): observed
  neutrophilia (FIG. 15): observed
[2]; [8]
  loss of body weight (FIG. 5): observed
  loss of spleen weight (FIG. 6): observed
  mesenteric vasculitis (monocyte/polymorphonuclear perivascular infiltration into the mesentery, FIG. 8): observed
  neutrophilia (FIG. 7): observed

## O=C(O)Cc1ccccc1Nc1c(Cl)cccc1Cl [diclofenac]
[4]; [9]
  effect of co-administration on roflumilast-mediated loss of body weight (FIG. 1): substantially reduced or prevented
  effect of co-administration on roflumilast-mediated loss of spleen weight (FIG. 2): substantially reduced or prevented
  effect of co-administration on roflumilast-mediated mesenteric vasculitis (FIG. 4): substantially reduced or prevented
  effect of co-administration on roflumilast-mediated neutrophilia (FIG. 3): substantially reduced or prevented
[4]; 1 mg/kg p.o. at 0800 and 1700 hours, four days, without roflumilast
  parameters measured after administration on its own (body weight, spleen weight, neutrophils, vasculitis): very similar to the control groups
